Measured values from article PMC3356581 (Bioorganic & medicinal chemistry, 2012).

What was measured:
D2 receptor = D2 receptor (Homo sapiens, UniProt P14416); experiment: NIMH-PDSP radioligand binding, D2
catalepsy = details: in vivo studies, five times the ED50 dose; cited from earlier work
5-HT1A receptor [1] = target: T1, 5-HT1A receptor (Homo sapiens, UniProt P08908); experiment: NIMH-PDSP radioligand binding, 5-HT1A
T1 sequence (P08908 1-422): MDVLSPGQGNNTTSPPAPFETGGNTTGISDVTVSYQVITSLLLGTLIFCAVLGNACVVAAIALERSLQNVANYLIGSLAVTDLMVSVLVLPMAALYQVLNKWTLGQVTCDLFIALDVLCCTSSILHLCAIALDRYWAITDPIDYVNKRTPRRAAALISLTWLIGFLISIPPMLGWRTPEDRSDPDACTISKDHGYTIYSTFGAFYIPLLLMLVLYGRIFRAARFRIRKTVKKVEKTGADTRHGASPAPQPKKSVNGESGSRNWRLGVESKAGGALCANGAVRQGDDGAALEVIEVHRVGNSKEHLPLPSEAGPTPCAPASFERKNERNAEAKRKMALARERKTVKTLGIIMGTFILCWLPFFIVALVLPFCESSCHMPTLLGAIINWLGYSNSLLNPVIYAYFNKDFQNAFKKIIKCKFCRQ

5-HT2A receptor = 5-HT2A receptor (Homo sapiens, UniProt P28223); experiment: NIMH-PDSP radioligand binding, 5-HT2A
Sequence of 5-HT2A receptor (P28223 whole entry): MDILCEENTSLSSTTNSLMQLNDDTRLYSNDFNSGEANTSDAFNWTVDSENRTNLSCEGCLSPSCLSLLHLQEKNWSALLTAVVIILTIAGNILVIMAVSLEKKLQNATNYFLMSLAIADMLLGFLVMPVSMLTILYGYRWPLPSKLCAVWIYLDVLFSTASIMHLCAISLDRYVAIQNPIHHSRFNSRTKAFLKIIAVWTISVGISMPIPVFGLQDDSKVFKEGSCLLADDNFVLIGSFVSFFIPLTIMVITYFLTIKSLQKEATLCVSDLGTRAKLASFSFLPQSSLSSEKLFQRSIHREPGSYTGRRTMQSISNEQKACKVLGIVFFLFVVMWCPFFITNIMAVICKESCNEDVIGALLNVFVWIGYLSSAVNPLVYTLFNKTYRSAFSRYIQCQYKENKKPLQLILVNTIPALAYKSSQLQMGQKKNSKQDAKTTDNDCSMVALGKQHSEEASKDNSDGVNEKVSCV

5-HT2C receptor [2] = target: T2, 5-HT2C receptor (Homo sapiens, UniProt P28335); experiment: NIMH-PDSP radioligand binding, 5-HT2C
T2 sequence (P28335 33-458): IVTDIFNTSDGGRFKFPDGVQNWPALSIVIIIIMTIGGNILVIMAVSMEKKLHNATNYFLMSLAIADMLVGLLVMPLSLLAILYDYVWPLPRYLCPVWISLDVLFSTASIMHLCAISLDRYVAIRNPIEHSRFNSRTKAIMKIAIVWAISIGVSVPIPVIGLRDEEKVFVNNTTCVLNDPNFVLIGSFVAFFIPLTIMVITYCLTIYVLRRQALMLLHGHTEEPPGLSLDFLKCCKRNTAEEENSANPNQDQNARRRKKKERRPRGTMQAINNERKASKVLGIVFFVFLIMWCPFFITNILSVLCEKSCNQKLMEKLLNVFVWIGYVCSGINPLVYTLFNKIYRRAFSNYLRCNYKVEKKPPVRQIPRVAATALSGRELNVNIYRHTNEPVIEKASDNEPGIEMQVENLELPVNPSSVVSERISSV

D4 receptor [3] = target: T3, D4 receptor (Homo sapiens, UniProt P21917); experiment: NIMH-PDSP radioligand binding, D4
T3 sequence (P21917 1-419): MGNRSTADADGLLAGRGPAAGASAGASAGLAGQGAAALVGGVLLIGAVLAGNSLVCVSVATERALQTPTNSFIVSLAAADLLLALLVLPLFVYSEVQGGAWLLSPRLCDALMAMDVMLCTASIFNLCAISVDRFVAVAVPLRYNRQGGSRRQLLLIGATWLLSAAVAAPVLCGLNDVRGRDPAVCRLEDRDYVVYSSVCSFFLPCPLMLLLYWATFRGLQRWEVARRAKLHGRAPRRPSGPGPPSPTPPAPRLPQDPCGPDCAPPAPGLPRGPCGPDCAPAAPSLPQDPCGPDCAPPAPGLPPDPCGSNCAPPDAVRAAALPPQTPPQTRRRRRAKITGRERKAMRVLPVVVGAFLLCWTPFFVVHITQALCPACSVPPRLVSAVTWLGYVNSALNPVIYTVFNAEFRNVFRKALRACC

Histamine H1 receptor = Histamine H1 receptor (Homo sapiens, UniProt P35367); experiment: NIMH-PDSP radioligand binding, H1
Sequence of Histamine H1 receptor (P35367 whole entry, species assumed): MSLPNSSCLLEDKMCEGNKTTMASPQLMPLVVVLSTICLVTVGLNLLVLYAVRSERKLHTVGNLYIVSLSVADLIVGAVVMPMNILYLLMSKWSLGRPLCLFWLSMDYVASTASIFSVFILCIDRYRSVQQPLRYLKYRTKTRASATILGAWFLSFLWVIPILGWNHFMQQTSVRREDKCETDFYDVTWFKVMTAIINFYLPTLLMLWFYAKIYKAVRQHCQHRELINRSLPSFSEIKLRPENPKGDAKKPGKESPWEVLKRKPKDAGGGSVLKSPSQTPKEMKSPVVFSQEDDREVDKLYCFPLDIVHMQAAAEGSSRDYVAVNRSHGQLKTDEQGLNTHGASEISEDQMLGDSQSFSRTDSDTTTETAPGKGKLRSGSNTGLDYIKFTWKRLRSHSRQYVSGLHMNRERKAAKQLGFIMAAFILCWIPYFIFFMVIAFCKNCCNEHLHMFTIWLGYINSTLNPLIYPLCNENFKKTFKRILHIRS

5-HT1A receptor [4] = target: T1, 5-HT1A receptor; details: read-out: Binding data, Ki ± SEM, previously reported; cited from earlier work
5-HT2C receptor [5] = target: T2, 5-HT2C receptor; details: read-out: Binding data, Ki ± SEM, previously reported; cited from earlier work
D4 receptor [6] = target: T3, D4 receptor; details: read-out: Binding data, Ki ± SEM, previously reported; cited from earlier work

Sequence of D2 receptor (P14416 whole entry): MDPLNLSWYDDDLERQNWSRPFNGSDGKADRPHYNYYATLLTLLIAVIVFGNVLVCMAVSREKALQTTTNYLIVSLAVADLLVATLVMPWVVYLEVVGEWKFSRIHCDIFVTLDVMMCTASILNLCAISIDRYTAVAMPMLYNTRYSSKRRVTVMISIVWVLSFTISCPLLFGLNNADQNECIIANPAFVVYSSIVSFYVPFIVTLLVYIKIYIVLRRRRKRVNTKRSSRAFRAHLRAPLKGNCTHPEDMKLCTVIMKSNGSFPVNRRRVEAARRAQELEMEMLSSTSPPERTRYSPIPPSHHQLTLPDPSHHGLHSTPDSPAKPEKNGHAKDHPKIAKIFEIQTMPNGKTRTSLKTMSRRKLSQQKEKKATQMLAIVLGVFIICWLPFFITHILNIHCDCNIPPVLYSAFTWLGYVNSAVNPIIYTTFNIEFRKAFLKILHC

In the case of Clc1ccc(N2CCCN(CCCc3nc4ccccc4s3)CC2)cc1 [Compound 14, 2-(3-(4-(4-Chlorophenyl)-1,4-diazepan-1-yl)propyl)benzo [d]thiazole], the “Binding data; Ki ± SEM, D2” value (D2 receptor) is reported as “MP (Missed primary assay threshold of 50% inhibition)”.
For O=C(CCCN1CCCN(c2ccc(Cl)cc2)CC1)c1ccc(F)cc1 [Compound 2, 4-(4-(4-chlorophenyl)-1,4-diazepan-1-yl)-1-(4-fluorophenyl)butan-1-one], the catalepsy (catalepsy) is listed as “without the associated catalepsy even at five times the ED50 dose”.
For Clc1ccc(N2CCCN(Cc3nc4ccccc4s3)CC2)cc1 [Compound 15, 2-((4-(4-Chlorophenyl)-1,4-diazepan-1-yl)methyl)benzo [d]thiazole], the “Binding data; Ki ± SEM, 5-HT1A” value (5-HT1A receptor [1]) was “MP (Missed primary assay threshold of 50% inhibition)”, the “Binding data; Ki ± SEM, 5-HT2A” value (5-HT2A receptor) was “MP (Missed primary assay threshold of 50% inhibition)” and the “Binding data; Ki ± SEM, 5-HT2C” value (5-HT2C receptor [2]) was “MP (Missed primary assay threshold of 50% inhibition)”. For the same molecule, the “Binding data; Ki ± SEM, D4” value (D4 receptor [3]) was “MP (Missed primary assay threshold of 50% inhibition)” and the “Binding data; Ki ± SEM, H1” value (Histamine H1 receptor) was “MP (Missed primary assay threshold of 50% inhibition)”.
For O=C(CCCN1CCN(c2ccc(Cl)cc2)CC1)c1ccc(F)cc1 [Compound 3], the Ki (5-HT1A receptor [4]) is given as 90.9 ± 21 nM, the Ki (5-HT2C receptor [5]) is given as 3550 ± 943 nM and the Ki (D4 receptor [6]) is given as 17.5 ± 2 nM.
With O=C(CCCN1CCCN(c2ccc(Cl)cc2)CC1)c1nc2ccccc2s1 [Compound 17, 1-(Benzo[d]thiazol-2-yl)-4-(4-(4-chlorophenyl)-1,4-diazepan-1-yl)butan-1-one] the “Binding data; Ki ± SEM, 5-HT1A” value (5-HT1A receptor [1]) was “MP (Missed primary assay threshold of 50% inhibition)”, the “Binding data; Ki ± SEM, 5-HT2C” value (5-HT2C receptor [2]) was “MP (Missed primary assay threshold of 50% inhibition)” and the “Binding data; Ki ± SEM, D2” value (D2 receptor) was “MP (Missed primary assay threshold of 50% inhibition)”.
For O=C(CCCCN1C2CCC1CC(O)(c1ccc(Cl)cc1)C2)c1nc2ccccc2s1 (stereo not shown) [Compound 18, 1-(Benzo[d]thiazol-2-yl)-5-(3-(4-chlorophenyl)-3-hydroxy-8-azabicyclo[3.2.1]octan-8-yl)pentan-1-one], the “Binding data; Ki ± SEM, 5-HT1A” value (5-HT1A receptor [1]) was “MP (Missed primary assay threshold of 50% inhibition)”, the “Binding data; Ki ± SEM, 5-HT2A” value (5-HT2A receptor) was “MP (Missed primary assay threshold of 50% inhibition)” and the “Binding data; Ki ± SEM, 5-HT2C” value (5-HT2C receptor [2]) was “MP (Missed primary assay threshold of 50% inhibition)”.
